Source: US6737383B1, “Herbicidal oxadiazolidines” (priority 1999, dated 2004)

Tests used:
rape = test: Test B pre/postemergence rape; format: in vivo, Brassica napus
Procedure, shortened: (§1)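 Response is a visual 0-to-10 score relative to untreated plants, where 0 means no effect and 10 means complete control, taken twelve to sixteen days after application. Treatments went onto soil at planting and onto foliage of 1- to 4-leaf plants, using a surfactant-containing non-phytotoxic solvent.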

crabgrass = test: Test B pre/postemergence crabgrass; format: in vivo, Digitaria sanguinalis
Procedure, shortened: as §1

pigweed = test: Test B pre/postemergence pigweed; format: in vivo, Amaranthus retroflexus
Procedure, shortened: as §1

surinam grass = test: Test B pre/postemergence surinam grass; format: in vivo, Brachiaria decumbens
Procedure, shortened: as §1

velvetleaf = test: Test B pre/postemergence velvetleaf; format: in vivo, Abutilon theophrasti
Procedure, shortened: as §1

soybean = test: Test B pre/postemergence soybean; format: in vivo, Glycine max
Procedure, shortened: as §1

blackgrass = test: Test B pre/postemergence blackgrass; format: in vivo, Alopecurus myosuroides
Procedure, shortened: as §1

bedstraw = test: Test B pre/postemergence bedstraw; format: in vivo, Galium aparine
Procedure, shortened: as §1

wheat = test: Test B pre/postemergence wheat; format: in vivo, Triticum aestivum
Procedure, shortened: as §1

corn = test: Test B pre/postemergence corn; format: in vivo, Zea mays
Procedure, shortened: as §1

giant foxtail = test: Test B pre/postemergence giant foxtail; format: in vivo, Setaria faberii
Procedure, shortened: as §1

purple nutsedge = test: Test B pre/postemergence purple nutsedge; format: in vivo, Cyperus rotundus
Procedure, shortened: as §1

cocklebur = test: Test B pre/postemergence cocklebur; format: in vivo, Xanthium strumarium
Procedure, shortened: as §1

morningglory = test: Test B pre/postemergence morningglory; format: in vivo, Ipomoea hederacea
Procedure, shortened: as §1

wild oat = test: Test B pre/postemergence wild oat; format: in vivo, Avena fatua
Procedure, shortened: as §1

sugar beet = test: Test B pre/postemergence sugar beet; format: in vivo, Beta vulgaris
Procedure, shortened: as §1

[1] = Postemergence, Rate 62 g/ha, scale 0 to 10, 0 is no effect, 10 is complete control
[2] = Postemergence, Rate 125 g/ha, scale of 0 to 10 where 0 is no effect and 10 is complete control
[3] = Postemergence, Rate 500 g/ha, scale 0 (no effect) to 10 (complete control)
[4] = Rate 62 g/ha, Preemergence, scale 0 to 10
[5] = Rate 125 g/ha, Preemergence, scale 0 to 10 (0 no effect, 10 complete control)
[6] = Rate 250 g/ha, Postemergence, scale 0 to 10, 0 is no effect, 10 is complete control
[7] = Preemergence, Rate 250 g/ha, scale 0 (no effect) to 10 (complete control)
[8] = Rate 500 g/ha, Preemergence, scale 0 to 10 (0 no effect, 10 complete control)

## CC(C)N(C(=O)n1oc(=O)n(CCCCCl)c1=O)c1ccc(Cl)cc1 [Compound 791]
rape; [1]
  Plant response rating, Rape: 3
rape; [2]
  Rape plant response rating: 3
rape; [3]
  Rape plant response rating: 6
rape; [4]
  Rape plant response rating: 0
rape; [5]
  Rape plant response rating: 0
rape; [6]
  Rape plant response rating: 5
crabgrass; [1]
  Plant response rating, Crabgrass: 1
crabgrass; [2]
  Crabgrass plant response rating: 4
crabgrass; [3]
  Crabgrass plant response rating: 9
crabgrass; [7]
  Crabgrass plant response rating: 10
crabgrass; [4]
  Crabgrass plant response rating: 6
crabgrass; [5]
  Crabgrass plant response rating: 6
crabgrass; [6]
  Crabgrass plant response rating: 9
crabgrass; [8]
  Crabgrass plant response rating: 10
pigweed; [1]
  Plant response rating, Redroot pigweed: 2
pigweed; [2]
  Redroot pigweed plant response rating: 6
pigweed; [3]
  Redroot pigweed plant response rating: 8
pigweed; [4]
  Redroot pigweed plant response rating: 0
pigweed; [5]
  Redroot pigweed plant response rating: 0
pigweed; [6]
  Redroot pigweed plant response rating: 6
Surinam grass; [1]
  Plant response rating, B. signalgrass: 0
Surinam grass; [2]
  B. signalgrass plant response rating: 0
Surinam grass; [7]
  B. signalgrass plant response rating: 0
Surinam grass; Rate 62 g/ha, Preemergence, scale 0 (no effect) to 10 (complete control)
  B. signalgrass plant response rating: 0
Surinam grass; [5]
  B. signalgrass plant response rating: 0
Surinam grass; [6]
  B. signalgrass plant response rating: 0
Surinam grass; Rate 500 g/ha, Postemergence, scale 0 to 10, 0 is no effect, 10 is complete control
  B. signalgrass plant response rating: 0
velvetleaf; [1]
  Plant response rating, Velvetleaf: 2
velvetleaf; [3]
  Velvetleaf plant response rating: 6
velvetleaf; [4]
  Velvetleaf plant response rating: 0
velvetleaf; [5]
  Velvetleaf plant response rating: 0
velvetleaf; [6]
  Velvetleaf plant response rating: 6
velvetleaf; [8]
  Velvetleaf plant response rating: 0
soybean; [1]
  Plant response rating, Soybean: 4
soybean; [3]
  Soybean plant response rating: 5
soybean; [4]
  Soybean plant response rating: 4
soybean; [5]
  Soybean plant response rating: 4
soybean; [6]
  Soybean plant response rating: 5
soybean; [8]
  Soybean plant response rating: 5
blackgrass; [1]
  Plant response rating, Blackgrass: 0
blackgrass; [2]
  Blackgrass plant response rating: 2
blackgrass; [3]
  Blackgrass plant response rating: 6
blackgrass; [7]
  Blackgrass plant response rating: 7
blackgrass; [4]
  Blackgrass plant response rating: 0
blackgrass; [5]
  Blackgrass plant response rating: 0
blackgrass; [6]
  Blackgrass plant response rating: 5
bedstraw; [1]
  Plant response rating, Bedstraw: 0
bedstraw; [3]
  Bedstraw plant response rating: 3
bedstraw; [5]
  Bedstraw plant response rating: 0
bedstraw; [6]
  Bedstraw plant response rating: 3
wheat; [1]
  Plant response rating, Wheat: 0
wheat; [3]
  Wheat plant response rating: 0
wheat; [4]
  Wheat plant response rating: 0
wheat; [5]
  Wheat plant response rating: 0
wheat; [6]
  Wheat plant response rating: 0
corn; [1]
  Plant response rating, Corn: 0
corn; [2]
  Corn plant response rating: 0
corn; [3]
  Corn plant response rating: 1
corn; [7]
  Corn plant response rating: 0
corn; [4]
  Corn plant response rating: 0
corn; [5]
  Corn plant response rating: 0
corn; [6]
  Corn plant response rating: 1
corn; [8]
  Corn plant response rating: 0
Giant foxtail; [1]
  Plant response rating, Giant foxtail: 0
Giant foxtail; [2]
  Giant foxtail plant response rating: 2
Giant foxtail; [3]
  Giant foxtail plant response rating: 9
Giant foxtail; [7]
  Giant foxtail plant response rating: 10
Giant foxtail; [4]
  Giant foxtail plant response rating: 10
Giant foxtail; [5]
  Giant foxtail plant response rating: 10
Giant foxtail; [6]
  Giant foxtail plant response rating: 8
Giant foxtail; [8]
  Giant foxtail plant response rating: 10
Purple nutsedge; [1]
  Plant response rating, Nutsedge: 0
Purple nutsedge; [2]
  Nutsedge plant response rating: 0
Purple nutsedge; [3]
  Nutsedge plant response rating: 0
Purple nutsedge; [4]
  Nutsedge plant response rating: 0
Purple nutsedge; [5]
  Nutsedge plant response rating: 0
Purple nutsedge; [6]
  Nutsedge plant response rating: 0
Purple nutsedge; [8]
  Nutsedge plant response rating: 0
cocklebur; [1]
  Plant response rating, Cocklebur: 0
cocklebur; [2]
  Cocklebur plant response rating: 0
cocklebur; [3]
  Cocklebur plant response rating: 5
cocklebur; [7]
  Cocklebur plant response rating: 0
cocklebur; [4]
  Cocklebur plant response rating: 0
cocklebur; [5]
  Cocklebur plant response rating: 0
cocklebur; [6]
  Cocklebur plant response rating: 0
cocklebur; [8]
  Cocklebur plant response rating: 0
morningglory; [1]
  Plant response rating, Morningglory: 3
morningglory; [2]
  Morningglory plant response rating: 3
morningglory; [3]
  Morningglory plant response rating: 9
morningglory; [4]
  Morningglory plant response rating: 0
morningglory; [5]
  Morningglory plant response rating: 0
morningglory; [6]
  Morningglory plant response rating: 9
morningglory; [8]
  Morningglory plant response rating: 0
Wild oat; [1]
  Plant response rating, Wild oats: 0
Wild oat; [3]
  Wild oats plant response rating: 0
Wild oat; [4]
  Wild oats plant response rating: 0
Wild oat; [5]
  Wild oats plant response rating: 0
Wild oat; [6]
  Wild oats plant response rating: 0
Sugar beet; [1]
  Plant response rating, Sugarbeets: 0
Sugar beet; [3]
  Sugarbeets plant response rating: 5
Sugar beet; [4]
  Sugarbeets plant response rating: 0
Sugar beet; [5]
  Sugarbeets plant response rating: 0
Sugar beet; [6]
  Sugarbeets plant response rating: 2
